{"source": "paper PMC10920779", "about": "“Targeting P2Y14R protects against necroptosis of intestinal epithelial cells through PKA/CREB/RIPK1 axis in ulcerative colitis” (Nature Communications, 2024)", "key": {"[1]": {"experiment": "Cytotoxicity by CCK8 analysis in HT-29 cells", "type": "cell-based, human", "settings": "human, HT-29 cells, read-out: Cell viability (%)", "experimental": "(§1) Necroptosis was induced by pretreatment with TNF‐α (20 ng·mL^−1) plus z‐VAD‐fmk (20 μM) and Smac mimetic (BV6, 2 μM) for 8 h, then stained cells with hematoxylin/eosin. For PI/Hoechst staining, cells were stained with PI and Hoechst for 20 min, then photographed with a fluorescence microscope and at least 300 cells were counted. The ratio of PI positive cells (%) = (PI positive cells) / (Hoechst positive cells) × 100%. For cell viability assay, CCK8 was added to the well and incubated for 1 − 2 h and then OD450 was measured using a multi-mode microplate reader (Cytation5, BioTek)."}, "HT-29 cells [2]": {"test_system": "HT-29 cells", "experiment": "Cytotoxicity by CCK8 analysis in HT-29 cells", "type": "cell-based, human", "experimental": "as §1"}, "P2Y14R [3]": {"molecular_target": "T1, P2Y14R (Homo sapiens, UniProt Q15391)", "T1 sequence (Q15391 1-338)": "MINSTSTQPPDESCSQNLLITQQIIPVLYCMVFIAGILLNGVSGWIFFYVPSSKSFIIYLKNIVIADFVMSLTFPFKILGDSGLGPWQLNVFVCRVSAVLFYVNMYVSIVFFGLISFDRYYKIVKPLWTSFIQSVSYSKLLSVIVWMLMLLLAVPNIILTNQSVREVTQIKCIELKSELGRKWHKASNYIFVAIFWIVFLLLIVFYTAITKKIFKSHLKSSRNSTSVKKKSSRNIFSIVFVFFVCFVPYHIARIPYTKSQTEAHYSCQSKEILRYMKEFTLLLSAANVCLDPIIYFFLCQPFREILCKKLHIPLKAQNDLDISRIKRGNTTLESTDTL", "experiment": "Cellular thermal shift assay (CETSA) in P2Y14-HEK293 cells", "type": "binding"}, "[4]": {"test_system": "MLKL, PKA, CREB phosphorylation", "experiment": "Immunoblotting of p-MLKL, p-PKA, p-CREB in colon tissues/IECs of DSS-treated mice", "type": "in vivo, mouse", "settings": "for Activation of cAMP/PKA/CREB pathway (p-PKA, p-CREB): DSS-induced colitis mice; for Necroptosis of IECs (p-MLKL level and TEM imaging): high-dose, 20 μM, during DSS feeding", "experimental": "The data represent the mean ± SD for c, e, and h–l, the data represent the mean ± SEM for b.\nColon tissues derived from the euthanized by carbon dioxide inhalation mice were opened longitudinally and washed in pre-cooling PBS for three times. Then, the tissues were cut into 3 mm^2 pieces and incubated with 5 mM EDTA solution in PBS on a constant temperature shaker at 200 rpm for 25 min at 37°C. Then, let it stand at room temperature for 30 seconds and collected the supernatant. Next, repeated the above process once. Supernatants from the above step were combined and centrifuged at 500 g for 8 min. Abandon the supernatants and obtain IECs.\nTissues and cells were lysed using RIPA lysis buffer (Beyotime Biotechnology) containing protease and phosphatase inhibitor, homogenated, and centrifuged. The protein concentration was determined by BCA protein assay (Beyotime Biotechnology). Equal concentrations of proteins were separated in a 10% SDS-PAGE and transferred to PVDF membrane. The membrane was blocked using 5% milk in TBST, probed with primary antibody, RIPK1 (17519-1-AP, Proteintech, 1:1000), MLKL (GTX107538-100, GeneTex, 1:1000), RIPK3 (17563-1-AP, Proteintech, 1:1000), p-MLKL (EPR9514, Abcam, 1:1000), PKA (bs-0520R, Bioss, 1:1000), p-PKA (#9621, Cell signaling, 1:1000), CREB (AF6188, Affinity, 1:1000), p-CREB (AF3189, Affinity, 1:1000), P2Y14R (bs-12028R, Bioss, 1:1000), GSDMD (ab209845, Abcam, 1:1000), Caspase1 p20 (bs-10442R, Bioss, 1:1000), Bcl-2 (bs-0032R, Bioss, 1:1000), Bax (AF0120, Affinity, 1:1000), Caspase-3 p-17 (Cell Signaling Technology, #9664, 1:1000), β-actin (bs-0061R, Bioss, 1:1000), GAPDH (BS-2188R, Bioss, 1:1000) and corresponding HRP-conjugated antibodies Goat Anti-Rabbit IgG H&L Antibody (bioss, Bs-0295G, 1:8000) or Goat Anti-Mouse IgG H&L Antibody (bioss, Bs-0296G, 1:8000). Densitometry was quantified using ImageJ software."}, "HT-29 cells [5]": {"test_system": "HT-29 cells", "experiment": "TSZ-induced necroptosis in HT-29 cells (CCK8 viability, PI/Hoechst, H&E staining)", "type": "cell-based, human", "experimental": "as §1"}, "intestinal organoids": {"test_system": "intestinal organoids", "experiment": "TSZ-induced necroptosis in intestinal organoids (PI staining)", "type": "cell-based, mouse", "settings": "P2Y14Rfl/fl organoids, pre-treated with compound", "experimental": "Crypts were released from the murine small intestine by incubation for 30 min at 4°C in PBS containing 2 mM EDTA. Isolated crypts were counted and pelleted. […] Organoid media were changed every 3 days. […] Dead cell imaging in live organoids was performed on the fluorescence microscope (BX53, Olympus Optical), and analyzed by image j."}, "Solubility": {"experiment": "Solubility", "type": "physicochemical", "settings": "compared with compound D4"}, "P2Y14R [6]": {"molecular_target": "T1, P2Y14R", "experiment": "cAMP production assay for P2Y14R antagonistic activity in P2Y14-HEK293 cells", "quoted_text": "Data points shown are the mean values of at three independent experiments, each performed in duplicate. […] The data obtained from three independent experiments and represented as mean ± SD. Statistical significance was determined by One-way ANOVA with Tukey multiple comparison test."}, "[7]": {"parameters": "method as in PMID 24138077", "settings": "cited from earlier work"}, "[8]": {"parameters": "method as in PMID 24138077", "settings": "cited from earlier work", "remark": "listed apart in the source"}, "[9]": {"settings": "DSS-treated mice, group -H (high dose), Figure 7h"}, "[10]": {"settings": "DSS-treated mice, group -L (low dose), Figure 7h"}}, "note": "Values joined by “and” are separate entries in the source; they are usually repeats but may differ in a detail not shown here. Equal values may be shown once. “Also recorded” adds a separate entry of the source. Read-outs that look alike come from different tables or passages of the source.", "data": [{"smiles": "Brc1ccc(NCc2nc3ccccc3o2)cc1", "note": "[HDL-16]", "values": [{"measurement": "viability at 12 h, 1 nM", "setting": "[1]; 1 nm", "value": 108, "unit": "%"}, {"measurement": "viability at 12 h, 1 µM", "setting": "[1]; 1 μm", "value": 117, "unit": "%"}, {"measurement": "viability at 12 h, 10 µM", "setting": "[1]; 10 μm", "value": 103, "unit": "%"}, {"measurement": "viability at 12 h, 100 nM", "setting": "[1]; 100 nm", "value": 109, "unit": "%"}, {"measurement": "Cell viability (%)", "setting": "HT-29 cells [2]; 1 nm", "value": 114, "unit": "%"}, {"measurement": "Cell viability (%)", "setting": "HT-29 cells [2]; 1 μm", "value": 116, "unit": "%"}, {"measurement": "Cell viability (%)", "setting": "HT-29 cells [2]; 10 nm", "value": "95% and 93% and 119% and 111%"}, {"measurement": "Cell viability (%)", "setting": "HT-29 cells [2]; 10 μm", "value": "115% and 106% and 113%"}, {"measurement": "Cell viability (%)", "setting": "HT-29 cells [2]; 100 nm", "value": "110% and 99%"}, {"measurement": "Cytotoxicity in HT-29 cells", "setting": "HT-29 cells [2]; CCK8, 12 h, under the concentration of 10 μM", "value": "almost no cytotoxicity"}, {"measurement": "Thermal stability of P2Y14R", "setting": "P2Y14R [3]; 10 µM, high temperature 50°C to 60°C", "value": "increased the thermal stability of P2Y14R"}, {"measurement": "p2y14/actin", "setting": "P2Y14R [3]; 50 °C", "value": "0.9863 and 0.7504 and 1.263"}, {"measurement": "p2y14/actin", "setting": "P2Y14R [3]; 52 °C", "value": "0.8682 and 0.8052 and 1.097"}, {"measurement": "p2y14/actin", "setting": "P2Y14R [3]; 54 °C", "value": "0.8235 and 0.8131 and 0.9578"}, {"measurement": "p2y14/actin", "setting": "P2Y14R [3]; 56 °C", "value": "0.6752 and 0.6905 and 0.8001"}, {"measurement": "p2y14/actin", "setting": "P2Y14R [3]; 58 °C", "value": "0.4486 and 0.4259 and 0.4526"}, {"measurement": "p2y14/actin", "setting": "P2Y14R [3]; 60 °C", "value": "0.3634 and 0.3497 and 0.2374"}, {"measurement": "p2y14/actin", "setting": "P2Y14R [3]; con 0.001 µM", "value": "0.1618 and 0.1023 and 0.1705"}, {"measurement": "p2y14/actin", "setting": "P2Y14R [3]; con 0.1 µM", "value": "0.6503 and 0.6207 and 0.4614"}, {"measurement": "p2y14/actin", "setting": "P2Y14R [3]; con 1 µM", "value": "0.7977 and 0.6147 and 1.014"}, {"measurement": "p2y14/actin", "setting": "P2Y14R [3]; con 10 µM", "value": "1.142 and 0.89 and 0.9685"}, {"measurement": "Melting temperature (Tm) of P2Y14R", "setting": "P2Y14R [3]; different concentrations", "value": "increased the melting temperature (Tm) of P2Y14R in a dose-dependent manner"}, {"measurement": "Activation of cAMP/PKA/CREB pathway (p-PKA, p-CREB)", "setting": "[4]", "value": "significantly increased the level of p-PKA and p-CREB; also recorded: upregulated the activation of the cAMP/PKA/CREB pathway"}, {"measurement": "P-MLKL/MLKL", "setting": "[4]; [9]", "value": "1.521 and 1.265 and 1.621 and 1.356 and 1.5395"}, {"measurement": "P-PKA/PKA", "setting": "[4]; [9]", "value": "1.707 and 1.759 and 1.709 and 1.416 and 2.236"}, {"measurement": "p-CREB/CREB", "setting": "[4]; [9]", "value": "1.095 and 0.9798 and 1.543 and 0.8826 and 0.8002"}, {"measurement": "P-MLKL/MLKL", "setting": "[4]; [10]", "value": "1.7141 and 1.386 and 1.7276 and 1.656 and 1.549"}, {"measurement": "P-PKA/PKA", "setting": "[4]; [10]", "value": "1.542 and 1.79 and 2.009 and 1.5655 and 1.809"}, {"measurement": "p-CREB/CREB", "setting": "[4]; [10]", "value": "0.8983 and 0.8748 and 1.433 and 0.9557 and 0.9121"}, {"measurement": "P-MLKL/MLKL", "setting": "[4]; P2Y14R△IEC mice + DSS + HDL-16-H (high dose), individual replicates", "value": "1.288 and 1.248 and 1.394 and 1.076 and 1.4285"}, {"measurement": "P-MLKL/MLKL", "setting": "[4]; P2Y14R△IEC mice + DSS + HDL-16-L (low dose), individual replicates", "value": "1.279 and 1.445 and 1.246 and 1.195 and 1.182"}, {"measurement": "Necroptosis of IECs (p-MLKL level and TEM imaging)", "setting": "[4]", "value": "prominently suppression in necroptosis"}, {"measurement": "Necroptosis of HT-29 cells (PI staining)", "setting": "HT-29 cells [5]; TSZ-treated, pre-administrated with compound", "value": "inhibit the necroptosis"}, {"measurement": "TSZ-induced necroptosis of organoids (PI staining)", "setting": "intestinal organoids", "value": "protected P2Y14R^fl/fl organoids from TSZ-induced necroptosis"}, {"measurement": "Solubility", "setting": "Solubility", "value": "increased solubility"}, {"measurement": "IC50", "setting": "P2Y14R [6]", "value": 0.31, "unit": "nM"}, {"measurement": "Inhibition of cAMP production in P2Y14-HEK293 cells, Inhibition (%)", "setting": "P2Y14R [6]; 10 nM, 0.01 µM", "value": "84.08% and 80.86%"}, {"measurement": "Inhibition of cAMP production in P2Y14-HEK293 cells, Inhibition (%)", "setting": "P2Y14R [6]; 100 nM, 0.1 µM", "value": "122.69% and 101.65% and 74.17%"}, {"measurement": "inhibition at 0.01 µM", "setting": "P2Y14R [6]; read-out: Inhibition of cAMP production in P2Y14-HEK293 cells, Inhibition (%), 10 nM", "value": 94, "unit": "%"}]}, {"smiles": "O=C(O)c1cc(-c2ccc(C3CCNCC3)cc2)c2ccc(-c3ccc(C(F)(F)F)cc3)cc2c1", "note": "[PPTN, reference compound]", "values": [{"measurement": "Activation of cAMP/PKA/CREB pathway (p-PKA, p-CREB)", "setting": "[4]", "value": "significantly increased the level of p-PKA and p-CREB"}, {"measurement": "P-MLKL/MLKL", "setting": "[4]; DSS-treated mice, Figure 7h", "value": "1.3877 and 1.2109 and 1.586 and 1.421 and 1.9357"}, {"measurement": "P-PKA/PKA", "setting": "[4]; DSS-treated mice, Figure 7h", "value": "2.217 and 1.679 and 2.34 and 2.232 and 2.623"}, {"measurement": "p-CREB/CREB", "setting": "[4]; DSS-treated mice, Figure 7h", "value": "0.8109 and 1.08 and 1.258 and 1.076 and 0.8633"}, {"measurement": "P-MLKL/MLKL", "setting": "[4]; P2Y14R△IEC mice + DSS + PPTN, individual replicates", "value": "1.205 and 1.2332 and 1.252 and 1.224 and 1.39"}, {"measurement": "Necroptosis of IECs (p-MLKL level and TEM imaging)", "setting": "[4]", "value": "prominently suppression in necroptosis"}, {"measurement": "PI positive cell, PI intensity (%)", "setting": "HT-29 cells [5]; Figure 7k, TSZ-treated cells", "value": "15.53% and 10.57% and 8.89%"}, {"measurement": "Solubility", "setting": "[7]", "value": "poor solubility"}, {"measurement": "Oral bioavailability", "setting": "[8]", "value": "low oral bioavailability"}]}]}
